Among the data in ChEMBL document CHEMBL1134491, “QSAR and molecular modeling studies of baclofen analogues as GABA(B) agonists. Insights into the role of the aromatic moiety in GABA(B) binding and activation” (J Med Chem, 2001) are IC50 values, retold here.

The experiment is described as follows: Inhibitory concentration against binding of (R)-(-)-[3H]-baclofen to GABAB sites on rat whole brain synaptic membrane.

SMILES strings stand for the structures.

Regarding `Cc1ccc([C@H](CN)CC(=O)O)o1`, the IC50 was over 100 µM.

Consider `NC[C@H](CC(=O)O)c1ccsc1`, for which the half-inhibitory concentration (IC50) was determined as 20.9 µM.

Take `NC[C@H](CC(=O)O)c1ccco1`: the IC50 was over 100 µM.

Take `NC[C@H](CC(=O)O)c1cc(Cl)cs1`: the IC50 is 45.3 µM.

`Cc1ccc([C@H](CN)CC(=O)O)s1`: the IC50 came out at 134 µM.

On to `NC[C@H](CC(=O)O)c1ccc(F)cc1`, for which the IC50 amounted to 0.8 µM.

`NC[C@H](CC(=O)O)c1ccc(Cl)s1` had a concentration for half-maximal inhibition (IC50) of 0.61 µM.

Molecule `Cc1ccsc1[C@H](CN)CC(=O)O` gave an IC50 of 124 µM.

`NC[C@H](CC(=O)O)c1ccc(Br)s1` had an IC50 of 1.86 µM.

`NC[C@H](CC(=O)O)c1cccs1` gave a half-inhibitory concentration (IC50) of 9.72 µM.

For the molecule `NC[C@H](CC(=O)O)c1cc(Br)cs1`, the concentration for half-maximal inhibition (IC50) worked out at 39.1 µM.

`NC[C@H](CC(=O)O)c1ccc(O)cc1`: the IC50 is over 100 µM.

With `NC[C@H](CC(=O)O)c1cccc(Cl)c1`, the IC50 was found to be 20 µM.

Molecule `NC[C@H](CC(=O)O)c1ccccc1Cl` gave an IC50 of 0.8 µM.
